Laboratory results as given in US5378706A, “Fused-thiazole derivatives active on the cholinergic system, and pharmaceutical compositions containing same” (Sanofi, priority 1987, dated 1995).
pIC50: −log10 of the molar value.

Tests used:
[1] = test system: M1 central muscarinic cholinergic receptors; experiment: Antagonism of rotations induced by intrastriatal injection of pirenzepine in mice; format: in vivo, mice (Swiss, CD 1); conditions: for Pirenzepine antagonism ED50 i.p.: 15 minutes before intrastriatal pirenzepine 1 μg; for Pirenzepine antagonism ED50 p.o.: 30 minutes before intrastriatal pirenzepine 1 μg
Procedure: Pirenzepine (PZ) is a specific antagonist of the M1 central muscarinic cholinergic receptors. The intrastriatal injection of PZ into mice induces rotatory behavoir. The antagonism of this behavoir by the products according to the invention was studied.
The products according to the invention are administered either intraperitoneally (i.p.) or orally (p.o.) after solubilization in distilled water or suspension in a 5% solution of gum arabic. The control animals receive the pure solvent under the same conditions.
The animals used are female mice (Swiss, CD 1, Charles River, France) with a body weight of between 25 and 30 grams.
The pirenzepine is dissolved in a phosphate buffer and the pH of the solution is 6.
The test products or their solvents are administered in a volume of 0.4 ml per 20 g of body weight, either by i.p. injection or orally via an esophageal tube.
The number of contralateral rotations (rotations in the opposite direction to the side injected) was counted for three 2-minute periods after injection of the pirenzepine: 2nd to 4th, 8th to 10th and 13th to 15th minutes. Each treatment consists of 3 to 4 doses and 10 animals per dose. The total number of rotations and the percentage antagonism with respect to the control group are calculated for each treatment.

[2] = Acute toxicity, 24 hours mortality after i.p. administration to mice; conditions: mouse, in vivo, ip, female mice, 20 g
Procedure: Finally, the acute toxicity was determined for various products according to the invention. The products were administered intraperitoneally in increasing doses to groups of 10 female mice (Swiss, CD 1, Charles River, France) with a body weight of 20 g.

[3] = molecular target: T1, M1 -type muscarinic cholinergic receptor (Rattus norvegicus, UniProt P08482); experiment: biochemical; format: binding; conditions: for pIC50: rat hippocampus homogenate, 3H-PZ 1 nM, 2 hours at 4° C., pH 7.40, read-out: IC50 3H-PZ (M1); for ratio R of the IC50 values for the M1 and M2 receptors: selectivity, values correspond to IC50 M2 / IC50 M1
T1 sequence (P08482 1-460): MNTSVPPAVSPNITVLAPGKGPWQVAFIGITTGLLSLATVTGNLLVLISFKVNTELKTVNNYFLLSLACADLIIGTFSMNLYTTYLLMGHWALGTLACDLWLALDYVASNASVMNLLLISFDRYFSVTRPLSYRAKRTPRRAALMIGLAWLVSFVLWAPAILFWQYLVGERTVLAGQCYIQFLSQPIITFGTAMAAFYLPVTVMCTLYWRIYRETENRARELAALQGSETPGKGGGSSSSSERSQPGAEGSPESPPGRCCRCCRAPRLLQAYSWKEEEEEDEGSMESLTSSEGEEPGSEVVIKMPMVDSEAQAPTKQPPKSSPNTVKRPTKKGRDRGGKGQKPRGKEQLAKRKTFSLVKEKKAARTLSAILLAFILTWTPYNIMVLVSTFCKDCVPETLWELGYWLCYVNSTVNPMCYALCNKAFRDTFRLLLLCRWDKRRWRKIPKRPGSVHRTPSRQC
Procedure: The interaction of the molecules with the M1 -type muscarinic receptors was studied by in vitro measurement, on a rat hippocampus homogenate, of the displacement of tritiated pirenzepine from its specific binding sites. Aliquots (10 μl) of a 5% (w/v) rat hippocampus homogenate in an Na2 HPO4 buffer (50 mM, pH 7.40) are incubated for 2 hours at 4° C. in the presence of ^3 H-PZ (76 Ci/mmol; final concentration 1 nM) and increasing concentrations of the test product. The final volume is 2 ml. The reaction is stopped by centrifugation for 10 minutes at 50,000×g. After decantation and washing of the residues, the bound radioactivity is counted by liquid scintillation. The non-specific binding is determined in the presence of 10 μM atropine sulfate.

[4] = molecular target: T2, M2 -type muscarinic cholinergic receptor (Cavia porcellus, UniProt H0VRN8); experiment: Affinity for the M2-type muscarinic cholinergic receptor, displacement of tritiated N-methylscopolamine (3H-NMS) on smooth guinea-pig ileum muscle homogenate; format: binding; conditions: guinea-pig ileum smooth muscle homogenate, 3H-NMS 0.3 nM, 20 minutes at 30° C., pH 7.5; read-out: IC50 3H-NMS (M2)
T2 construct: on a smooth guinea-pig ileum muscle homogenate; from tissue; host or cells: guinea-pig ileum smooth muscle homogenate
T2 sequence (H0VRN8 1-466): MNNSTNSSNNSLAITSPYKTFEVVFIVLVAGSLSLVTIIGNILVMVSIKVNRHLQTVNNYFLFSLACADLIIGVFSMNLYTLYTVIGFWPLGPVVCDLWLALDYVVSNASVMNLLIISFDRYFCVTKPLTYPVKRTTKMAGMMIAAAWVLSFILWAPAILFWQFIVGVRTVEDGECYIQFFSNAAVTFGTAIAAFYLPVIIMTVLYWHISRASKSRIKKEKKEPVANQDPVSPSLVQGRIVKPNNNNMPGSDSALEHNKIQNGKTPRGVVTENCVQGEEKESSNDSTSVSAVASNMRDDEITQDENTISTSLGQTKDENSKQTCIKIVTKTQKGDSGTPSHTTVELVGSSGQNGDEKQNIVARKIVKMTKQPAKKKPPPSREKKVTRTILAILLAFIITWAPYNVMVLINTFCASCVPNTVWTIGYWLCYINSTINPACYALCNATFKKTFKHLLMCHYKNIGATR
Procedure: The M1 -type receptors are concentrated in certain regions of the brain, such as the hippocampus, the cerebral cortex and the striatum, and also in the sympathetic ganglia. These binding sites can be selectively labeled with tritiated pirenzepine (^3 H-PZ). The M2 -type receptors predominate in the heart and the ileum and can be labeled with tritiated N-methyl-scopolamine (^3 H-NMS). The selectivity of the products of the invention with respect to the M1 and M2 sites was determined by studying their in vitro interaction with ^3 H-PZ and ^3 H-NMS firmly bound with a high affinity to rat hippocampus membranes and smooth guinea-pig ileum muscle, respectively.
The interaction with the M2 -type muscarinic receptors was studied by in vitro measurement, on a smooth guinea-pig ileum muscle homogenate, of the displacement of tritiated N-methylscopolamine from its specific binding sites. […] The final volume is 1 ml. The reaction is stopped by centrifugation for 5 minutes at 15,000×g. The non-specific binding is determined in the presence of 10 mM atropine sulfate.
The IC50 for ^3 H-PZ displacement represents the affinity for the M1 receptor; the IC50 for ^3 H-NMS displacement represents the affinity for the M2 receptor.

| Compound | Pirenzepine antagonism ED50 i.p. [1] | Pirenzepine antagonism ED50 p.o. [1] | LD50 at 24 h [2] | pIC50 [3] | ratio R of the IC50 values for the M1 and M2 receptors [3] | pIC50 [4] |
| --- | --- | --- | --- | --- | --- | --- |
| c1ccc(-c2csc(NCCN3CCOCC3)n2)cc1 [SR 44244 A] | 8 mg/kg | 20 mg/kg | 250 mg/kg | – | – | – |
| c1ccc(-c2csc(NCCCN3CCOCC3)n2)cc1 [SR 44284 A] | 8 mg/kg | – | 450 mg/kg | 5.10 | 5 | 4.40 |
| CCN(CC)CCNc1nc(-c2ccccc2)cs1 [SR 44286 A] | 3 mg/kg | 10 mg/kg | 200 mg/kg | 5.22 | 16 | 4.00 |
| CN(C)CCCNc1nc(-c2ccccc2)cs1 [SR 44345 A] | 0.5 mg/kg | 1 mg/kg | 200 mg/kg | 6.00 | 70 | 4.15 |
| CCN(CC)CCCNc1nc(-c2c(C)cc(C)cc2C)cs1 [SR 44347 A] | 0.03 mg/kg | 0.20 mg/kg | 60 mg/kg | 6.46 | 37 | 4.89 |
| CCN(CC)CCNc1nc(-c2c(C)cc(C)cc2C)cs1 [SR 44372 A] | 1 mg/kg | 3 mg/kg | 75 mg/kg | 6.92 | 41 | 5.30 |
| CCN(CC)CCCNc1nc(C)c(-c2ccccc2)s1 [SR 44373 A] | 0.3 mg/kg | 1 mg/kg | 75 mg/kg | 6.15 | 21 | 4.82 |
| CCN(CC)CCCNc1nc(-c2ccccc2)cs1 [SR 44374 A] | 3 mg/kg | – | 150 mg/kg | 6.40 | 20 | 5.10 |
